*1 amine or outer side, *2 acyl side, *3 side chain or, on linkers, in order; H or OH if unused. Where a SMILES comes first, the peptide text is derived from it. [ ]: non-standard residue; d: D form. The star is where a group is joined. X1 = C[C@H](CP(=O)(O)[C@H](Cc1ccccc1)N[*:1])C(=O)[*:2]; Cbz = O=C(OCc1ccccc1)*
Columns and labels:
[1] = target: recombinant PCP (procollagen C-proteinase) (Homo sapiens, UniProt P13497); conditions: 100 nM inhibitor; FIG. 1
human meprin = conditions: concentrations of up to 100 nM; FIG. 3
Experimental: The meprin activity test was carried out in a completely analogous manner to the in-vitro assay for measuring PCP activity. Instead of the recombinant PCP, use was made of human meprin, which also transforms the fluorescence-labeled decapeptide.

Chain of recombinant PCP (procollagen C-proteinase) (P13497 121-986, species assumed): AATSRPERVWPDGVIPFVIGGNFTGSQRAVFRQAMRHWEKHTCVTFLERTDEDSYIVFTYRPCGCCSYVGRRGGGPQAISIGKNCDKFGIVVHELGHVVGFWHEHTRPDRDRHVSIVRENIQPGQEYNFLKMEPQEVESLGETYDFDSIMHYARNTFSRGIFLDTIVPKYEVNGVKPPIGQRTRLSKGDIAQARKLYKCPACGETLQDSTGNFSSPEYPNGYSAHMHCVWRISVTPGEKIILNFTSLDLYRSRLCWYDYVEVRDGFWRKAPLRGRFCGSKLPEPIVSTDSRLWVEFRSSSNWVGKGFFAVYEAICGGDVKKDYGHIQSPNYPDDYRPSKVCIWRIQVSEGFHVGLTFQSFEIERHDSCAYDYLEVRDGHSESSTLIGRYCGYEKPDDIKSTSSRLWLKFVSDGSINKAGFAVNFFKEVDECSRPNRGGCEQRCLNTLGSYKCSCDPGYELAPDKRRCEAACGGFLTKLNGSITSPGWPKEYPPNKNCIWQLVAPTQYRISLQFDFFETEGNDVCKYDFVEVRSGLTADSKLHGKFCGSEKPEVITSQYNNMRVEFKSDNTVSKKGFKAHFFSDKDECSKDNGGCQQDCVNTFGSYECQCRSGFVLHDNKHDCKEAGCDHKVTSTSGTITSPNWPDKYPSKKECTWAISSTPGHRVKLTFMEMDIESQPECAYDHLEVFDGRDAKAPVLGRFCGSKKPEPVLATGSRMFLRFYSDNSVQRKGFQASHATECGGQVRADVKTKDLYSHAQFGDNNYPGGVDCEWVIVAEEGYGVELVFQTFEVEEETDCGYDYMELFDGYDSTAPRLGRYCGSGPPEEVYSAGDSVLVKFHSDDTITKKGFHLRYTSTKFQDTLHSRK

`COC(=O)[C@H](CC(C)C)NC(=O)[C@@H]1CCCN1C(=O)[C@H](C)CP(=O)(O)[C@H](Cc1ccccc1)NC(=O)[C@H](CCCCN)NC(=O)[C@@H]1CCCN1C(=O)OCc1ccccc1` [Z-PKF(PC)APL-O-Me] (Cbz-PK[X1]PL-OMe) was tested, and the “inhibition of PCP enzyme activity (transformation of the DABCYL-EDANS-decapeptide substrate as a function of time)” value [1] was “almost completely inhibited” and the “inhibition of meprin in its transformation of the fluorescence-labeled peptide” value (human meprin) was “only slightly inhibited”.
